Laboratory results as given in patent US9326539B2, “Compositions comprising dietary fat complexers and methods for their use” (Soho Flordis International Pty. Ltd., priority 2002, dated 2016).

Experiment: Wistar rat feeding study: plasma glucose, cholesterol, triglyceride, insulin resistance
Type: in vivo, Wistar rats
Excerpt: The rats were housed as pairs for five weeks prior to being placed in individual metabolic cages for the sixth week of the study. All of the rats' feces were collected during the final three days of the study. At the end of the sixth week of the study period the rats were sacrificed by decapitation after a brief exposure to carbon dioxide gas. Trunk blood and the livers were collected from each animal. The rest of the body was eviscerated and all visible fat from the internal cavity was collected and weighed. The carcass was frozen for body composition analysis at a later date.
The plasma glucose, cholesterol and triglyceride concentrations were measured on all of the sacrificed animals using standard clinical laboratory techniques as may be found in Tietz Textbook of Clinical Chemistry, second edition. Burtis C A and Ashwood E R eds., W.B. Saunders Company A Division of Harcourt Brace & Company, 1994, Philadelphia incorporated herein by reference. (FIG. 5). On average the α-cyclodextrin appeared to have decreased the plasma total cholesterol levels by about 10%. This decrease was not statistically significant over this short study period; we expect that with longer feeding period, cholesterol levels will continue to decline. […] LDL cholesterol levels on all of the animals were too low to measure reliably since in rats the majority of the cholesterol is carried in the HDL-cholesterol fraction, and very little is carried in the LDL-cholesterol fraction.
Increased insulin resistance, elevated blood triglycerides and reduced HDL cholesterol levels are all the risk factors of Syndrome X. Insulin/glucose ratios as well as triglyceride/HDL ratios were calculated to provide indications about insulin resistance and risk of Syndrome X. (Szejtli J. Mater. Chem. 1997; 7:575-587 incorporated herein by reference). […] The reduction in triglyceride/HDL cholesterol ratios by α-cyclodextrin indicated a significant decrease in the risk for Syndrome X.

## OC[C@H]1O[C@@H]2O[C@H]3[C@H](O)[C@@H](O)[C@@H](O[C@H]4[C@H](O)[C@@H](O)[C@@H](O[C@H]5[C@H](O)[C@@H](O)[C@@H](O[C@H]6[C@H](O)[C@@H](O)[C@@H](O[C@H]7[C@H](O)[C@@H](O)[C@@H](O[C@H]1[C@H](O)[C@H]2O)O[C@@H]7CO)O[C@@H]6CO)O[C@@H]5CO)O[C@@H]4CO)O[C@@H]3CO [α-cyclodextrin]
6 week study
  triglyceride/HDL cholesterol ratios: reduction
At sacrifice
  decrease of HDL cholesterol: 6-8%
  plasma glucose levels: not affected significantly
At sacrifice, p<0.05
  reduction of plasma triglyceride levels: about 30%
On average, at sacrifice, not statistically significant
  decrease of plasma total cholesterol: about 10%
